Test results published in the supplement of paper PMC4862054.

Columns and labels:
[1] = test system: BT-474; conditions: 72 h
Procedure, shortened: (§1)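 A 20 µl suspension of breast cancer cells was placed in 384-well plates that already contained compound at 5 concentrations in 10-fold steps across a compound-specific 10,000-fold range, and the plates were left for 72 h. CellTox Green fluorescence at 485/520 nm gave cell death, and CellTiter-Glo luminescence, read after 10 min at room temperature, gave viability. Each plate was normalised to 0.1 % DMSO and a positive kill control. EC50 was fitted from the curves and censored at the top concentration.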

[2] = test system: CAL-51; conditions: 72 h
Procedure, shortened: as §1

[3] = test system: MDA-MB-468; conditions: 72 h
Procedure, shortened: as §1

[4] = test system: CAL-120; conditions: 72 h
Procedure, shortened: (§2)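 To measure viability, fluorescence at 560/590 nm was read after 2.5 µl CellTiter-Blue had been added for 2 h at 37 °C. Cells from breast cancer lines had been seeded in 20 µl suspension onto 384-well plates pre-loaded with compound dissolved in 5 µl medium and kept for 72 h. EC50 comes from a fitted percent-inhibition dose-response curve censored at the highest concentration, after per-plate normalisation to vehicle and a positive kill control, Z'-factor checks, and removal of rows with zero drug sensitivity score.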

[5] = test system: HCC1937; conditions: 72 h
Procedure, shortened: as §2

[6] = test system: MDA-MB-231; conditions: 72 h
Procedure, shortened: as §2

[7] = test system: BT-474; assay: drug sensitivity score (DSS), CellTiter-Glo (DSS (AUC-based score)); higher = stronger drug effect (viability inhibition or cytotoxicity); extreme values may be limits of the assay; conditions: incubation time: 72 h
Procedure, shortened: (§3)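 The drug sensitivity score was computed from the area under the fitted dose-response curve. Breast cancer cell lines in 20 µl suspension went into 384-well plates holding compound at 5 concentrations (10-fold steps over a 10,000-fold, compound-specific range) for 72 h of incubation. CellTox Green fluorescence (485/520 nm) was read before CellTiter-Glo luminescence, the latter after 10 min at room temperature, and each plate was normalised to 0.1 % DMSO and a positive kill control.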

[8] = test system: BT-549; assay: as above; conditions: incubation time: 72 h
Procedure, shortened: as §3

[9] = test system: CAL-148; assay: as above; conditions: incubation time: 72 h
Procedure, shortened: as §3

[10] = test system: CAL-51; assay: as above; conditions: incubation time: 72 h
Procedure, shortened: as §3

[11] = test system: HCC1599; assay: as above; conditions: incubation time: 72 h
Procedure, shortened: as §3

[12] = test system: HDQ-P1; assay: as above; conditions: incubation time: 72 h
Procedure, shortened: as §3

[13] = test system: MDA-MB-436; assay: as above; conditions: incubation time: 72 h
Procedure, shortened: as §3

[14] = test system: MFM-223; assay: as above; conditions: incubation time: 72 h
Procedure, shortened: as §3

EC50, CellTiter-Glo [1] [µM] | EC50, CellTiter-Glo [3] [µM] | EC50, CellTiter-Blue viability [5] [µM] | EC50, CellTiter-Blue viability [6] [µM] | Compound | EC50, CellTiter-Glo [2] [µM] | EC50, CellTiter-Blue viability [4] [µM] | drug sensitivity score [7] | drug sensitivity score [8] | drug sensitivity score [9] | drug sensitivity score [10] | drug sensitivity score [11] | drug sensitivity score [12] | drug sensitivity score [13] | drug sensitivity score [14]
0.0434 | 0.0932 | 0.058 | 0.0592 | CN[C@@H]1C[C@H]2O[C@@](C)([C@@H]1OC)n1c3ccccc3c3c4c(c5c6ccccc6n2c5c31)C(=O)N[C@H]4O [UCN-01] | 0.0775 | 0.0245 | 26 | 21.6 | 8.79 | 23.9 | 27.9 | 18.8 | 20.9 | 16.6
0.0763 | 0.0267 | 0.0263 | 0.0676 | CCC1=C[C@@H]2CN(C1)Cc1c([nH]c3ccccc13)[C@@](C(=O)OC)(c1cc3c(cc1OC)N(C)[C@H]1[C@@](O)(C(=O)OC)[C@H](OC(C)=O)[C@]4(CC)C=CCN5CC[C@]31[C@@H]54)C2 [Vinorelbine] | 0.118 | 0.0225 | 12.3 | 20.7 | 17.1 | 17.1 | 18.8 | 7.16 | 21.9 | 16
